Experiment: mn = molality of the nth substance listed, in mol/kg
Conditions: 303.15 K, 101 kPa, Liquid, Capillary tube (Ostwald / Ubbelohde) method

CCCN [propan-1-amine] + C1CCOC1
Conditions	viscosity [mPa·s]
m1 = 0.1123	0.328
m1 = 0.2842	0.3315
m1 = 0.3986	0.3329
m1 = 0.5609	0.3353
m1 = 0.7487	0.3395
m1 = 0.8957	0.3412
m1 = 1.002	0.3436
m1 = 1.139	0.3453
m1 = 1.377	0.3513

CCCCN [1-butanamine] + C1COCCO1
Conditions	viscosity [mPa·s]
m1 = 0.1085	1.06
m1 = 0.2365	1.046
m1 = 0.3679	1.032
m1 = 0.4745	1.02
m1 = 0.5834	1.007
m1 = 0.7574	0.9893
m1 = 0.8872	0.9764
m1 = 1.004	0.9652
m1 = 1.116	0.9543

CCCCNCCCC [dibutylamine] + C1CCOC1
Conditions	viscosity [mPa·s]
m1 = 0.1402	0.3333
m1 = 0.2993	0.3417
m1 = 0.4313	0.3498
m1 = 0.5953	0.3567
m1 = 0.7592	0.3648
m1 = 0.8997	0.3735
m1 = 1.027	0.3806
m1 = 1.201	0.3912
m1 = 1.381	0.4015

CCCN(CCC)CCC [tripropylamine] + C1CCOC1
Conditions	viscosity [mPa·s]
m1 = 0.1317	0.3305
m1 = 0.2429	0.3364
m1 = 0.3465	0.3397
m1 = 0.4545	0.3447
m1 = 0.5811	0.3523
m1 = 0.6842	0.3577
m1 = 0.8378	0.3607
m1 = 0.9371	0.3681
m1 = 1.114	0.3753

CCCN [propan-1-amine] + C1COCCO1
Conditions	viscosity [mPa·s]
m1 = 0.1086	1.06
m1 = 0.2456	1.043
m1 = 0.3295	1.028
m1 = 0.478	1.014
m1 = 0.5767	0.9987
m1 = 0.7164	0.9852
m1 = 0.8321	0.9693
m1 = 1.028	0.9504
m1 = 1.116	0.9395

CCCCN(CCCC)CCCC [tributylamine] + C1COCCO1
Conditions	viscosity [mPa·s]
m1 = 0.1229	1.062
m1 = 0.2173	1.05
m1 = 0.3227	1.033
m1 = 0.4476	1.023
m1 = 0.5768	1.008
m1 = 0.7655	0.9912
m1 = 0.8789	0.9804
m1 = 1.028	0.9659
m1 = 1.179	0.9569

CCN(CC)CC [triethylamine] + C1COCCO1
Conditions	viscosity [mPa·s]
m1 = 0.159	1.054
m1 = 0.2697	1.042
m1 = 0.4098	1.018
m1 = 0.5388	0.998
m1 = 0.6616	0.98
m1 = 0.8419	0.955
m1 = 0.9909	0.932
m1 = 1.135	0.914
m1 = 1.27	0.894

CCCCNCCCC [dibutylamine] + C1COCCO1
Conditions	viscosity [mPa·s]
m1 = 0.1225	1.065
m1 = 0.2369	1.053
m1 = 0.3608	1.04
m1 = 0.4533	1.031
m1 = 0.594	1.019
m1 = 0.7122	1.006
m1 = 0.8855	0.9937
m1 = 0.9669	0.9865
m1 = 1.138	0.9766

CCCNCCC [dipropylamine] + C1COCCO1
Conditions	viscosity [mPa·s]
m1 = 0.0998	1.062
m1 = 0.2282	1.05
m1 = 0.341	1.039
m1 = 0.4787	1.027
m1 = 0.6261	1.012
m1 = 0.7266	1.001
m1 = 0.8461	0.9902
m1 = 0.9821	0.9801
m1 = 1.149	0.9661
